Laboratory results taken from patent US10159675B2, “Cycling therapy using 3-(5-amino-2-methyl-4-oxo-4H-quinazolin-3-yl)-piperidine-2,6-dione” (Celgene Corporation, priority 2015, dated 2018).

Legend:
[1] = test system: patients with relapsed or refractory DLBCL; test: Clinical study: dose-limiting toxicities, adverse events, dose modifications
Description: Adverse events (AEs) were graded by NCI CTCAE v4.0, and responses were investigator assessed using International Workshop criteria for NHL.

[2] = test system: Human CD34+ bone marrow cells; test: In vitro myeloid differentiation assay; type: cell-based; set-up: dose or concentration left out as unconfirmed; conditions: after 14 days
Method: Human CD34+ bone marrow cells were seeded in stem cell factor, Fms-like tyrosine kinase 3 ligand (F1t3L) and granulocyte colony-stimulating factor (G-CSF), followed by 6 days with media plus G-CSF. Compound 1 […] was added continuously or on a 5-of-7-day (5/7 d) schedule. After 14 days, myeloid maturation stages were measured by CD34, CD33, and CD11b flow cytometry.

[3] = test system: patients with relapsed or refractory DLBCL; test: Clinical study: response (International Workshop criteria for NHL), by schedule and biomarker; type: in vivo, human
Method: (§1) Sample Analysis • Aiolos was measured by flow cytometry on samples of whole blood drawn at 0 hours (pre-dose) and at 1.5 and 5 hours post-dose on cycle 1, day 1 • Archival or screening formalin-fixed paraffin-embedded (FFPE) tissues were stained for MYC and BCL2 expression6 on a Bond-Max automated slide stainer (Leica Microsystems, Buffalo Grove, Ill.) • Pathology review was performed on a hematoxylin and eosin stained slides to identify the area of DLBCL • RNA extraction and NanoString nCounter Analysis System lymphoma subtyping test (Seattle, Wash.) were performed as reported previously7 on core needle and excisional biopsy samples • For lymphocyte phenotyping, whole blood was drawn pre-dose (baseline) and 1.5 hours post-dose on cycle 1 day 15, cycle 1 day 22, cycle 2 day 15, and cycle 2 day 22 • Memory T cells ([…]) were measured by flow cytometry.

[4] = test system: Memory T cells; test: Clinical study: lymphocyte phenotyping by flow cytometry; type: in vivo, human; conditions: cycle 1, day 22, peripheral blood, 5/7 d schedule
Method: as §1

[5] = AEs occurring in >20% of patients, 3 mg 28/28 d (n = 25)
[6] = AEs occurring in >20% of patients, 4 mg 5/7 d (n = 21)
[7] = Grade 3/4 AEs occurring in >1 patient, 3 mg 28/28 d (n = 25)
[8] = Grade 3/4 AEs occurring in >1 patient, 4 mg 5/7 d (n = 21)
[9] = 4 mg 5/7 d DLBCL-2 cohort (n=17)
[10] = 5 mg 5/7 d DLBCL-2 cohort (n=3)

Q: Which results are given for Cc1nc2cccc(N)c2c(=O)n1C1CCC(=O)NC1=O (stereo not drawn) [Compound 1, 3-(5-amino-2-methyl-4-oxo-4H-quinazolin-3-yl)-piperidine-2,6-dione]?
A: Relative dose intensity (median) ([1]; 3 mg 28/28 d (daily continuously, n = 25)): 78.6%; DLTs (kind): febrile neutropenia ([1]; 3 mg qd): Grade 3 febrile; DLTs (kind): neutropenia ([1]; 3 mg qd): Grade 4; DLTs (kind): sepsis ([1]; 3 mg qd): Grade 4 sepsis; AE asthenia, patients ([1]; 4 mg 5/7 d): 29%; AE constipation, patients ([1]; 4 mg 5/7 d): 29%; AE neutropenia, patients ([1]; 4 mg 5/7 d): 52%; AE pyrexia, patients ([1]; 4 mg 5/7 d): 57%; DLTs (kind): neutropenia ([1]; 4 mg 5/7 d): Grade 4; serious treatment-related AE neck pain ([1]; 4 mg 5/7 d): 5%; serious treatment-related AE pneumonia ([1]; 4 mg 5/7 d): 5%; serious treatment-related AE pneumonitis ([1]; 4 mg 5/7 d): 5%; Relative dose intensity (median) ([1]; 4 mg 5/7 d (n = 21)): 97.5%; DLTs reported ([1]; 4 mg 5/7 d, DLBCL-2 expansion, 19 DLT-evaluable patients): No DLTs; dose-limiting toxicities during cycle 1 ([1]; 4 mg, 21/28 d cohort (n=3)): no dose-limiting toxicities; patients requiring subsequent dose reduction due to grade 4 neutropenia ([1]; 4 mg, 21/28 d cohort (n=3)): 3 patients; DLTs (kind): febrile neutropenia ([1]; 5 mg 5/7 d): Grade 3; DLTs (kind): pneumonitis ([1]; 5 mg 5/7 d): Grade 3; MTD ([1]; 5/7 d schedule): 4 mg; NTD ([1]; 5/7 d schedule): 5 mg; severity of neutropenia ([1]; 5/7 d schedule (FIG. 2)): mitigated; non-tolerated dose (NTD) ([1]; 21/28 d schedule): 4 mg; Anemia [1, 5]: 13 (52) n (%); Appetite [1, 5]: 1 (4) n (%); Arrhythmia [1, 5]: 0 n (%); Asthenia [1, 5]: 14 (56) n (%); Constipation [1, 5]: 4 (16) n (%); Cough [1, 5]: 10 (40) n (%); Decreased [1, 5]: 3 (12) n (%); Diarrhea [1, 5]: 5 (20) n (%); Dyspnea [1, 5]: 4 (16) n (%); Nausea [1, 5]: 4(16) n (%); Neutropenia [1, 5]: 19 (76) n (%); Peripheral edema [1, 5]: 7 (28) n (%); Pyrexia [1, 5]: 10 (40) n (%); Thrombocytopenia [1, 5]: 9 (36) n (%); Vomiting [1, 5]: 4 (16) n (%); Anemia [1, 6]: 5 (24) n (%); Appetite [1, 6]: 3 (14) n (%); Arrhythmia [1, 6]: 2 (10) n (%); Asthenia [1, 6]: 6 (29) n (%); Constipation [1, 6]: 6 (29) n (%); Cough [1, 6]: 2 (10) n (%); Decreased [1, 6]: 3 (14) n (%); Diarrhea [1, 6]: 3 (14) n (%); Dyspnea [1, 6]: 5 (24) n (%); Nausea [1, 6]: 5 (24) n (%); Neutropenia [1, 6]: 11 (52) n (%); Peripheral edema [1, 6]: 4 (19) n (%); Pyrexia [1, 6]: 12 (57) n (%); Thrombocytopenia [1, 6]: 5 (21) n (%); Vomiting [1, 6]: 5 (24) n (%); DLTs, n (%) ([1]; DLBCL-2, 4 mg 5/7 d, 19 DLT evaluable): 0 n (%); DLTs, n (%) ([1]; DLBCL-2, 4 mg 21/28 d, 3 DLT evaluable): 0 n (%); DLTs, n (%) ([1]; DLBCL-2, 5 mg 5/7 d, 5 DLT evaluable): 2 (40) n (%); Anemia [1, 7]: 3 (12) n (%); Appetite [1, 7]: 0 n (%); Arrhythmia [1, 7]: 0 n (%); Asthenia [1, 7]: 5 (20) n (%); Constipation [1, 7]: 0 n (%); Cough [1, 7]: 0 n (%); Decreased [1, 7]: 0 n (%); Diarrhea [1, 7]: 0 n (%); Dyspnea [1, 7]: 0 n (%); Nausea [1, 7]: 0 n (%); Neutropenia [1, 7]: 16 (64) n (%); Peripheral edema [1, 7]: 0 n (%); Pyrexia [1, 7]: 0 n (%); Thrombocytopenia [1, 7]: 3 (12) n (%); Vomiting [1, 7]: 0 n (%); Anemia [1, 8]: 0 n (%); Appetite [1, 8]: 0 n (%); Arrhythmia [1, 8]: 2 (7) n (%); Asthenia [1, 8]: 0 n (%); Constipation [1, 8]: 0 n (%); Cough [1, 8]: 0 n (%); Decreased [1, 8]: 0 n (%); Diarrhea [1, 8]: 0 n (%); Dyspnea [1, 8]: 0 n (%); Nausea [1, 8]: 0 n (%); Neutropenia [1, 8]: 8 (38) n (%); Peripheral edema [1, 8]: 0 n (%); Pyrexia [1, 8]: 0 n (%); Thrombocytopenia [1, 8]: 0 n (%); Vomiting [1, 8]: 0 n (%); DLTs, n (%) ([1]; NHL-1, 3 mg qd, 18 DLT evaluable): 3 (17) n (%); decreased mature neutrophils compared with vehicle ([2]; continuous exposure): 90%; decreased mature neutrophils ([2]; exposure for 5/7 d): 50%; complete responses [CR] ([3]; 3 mg 28/28 d cohort (n=22)): 2; overall response rate (ORR) ([3]; 3 mg 28/28 d cohort (n=22)): 27%; partial responses [PR] ([3]; 3 mg 28/28 d cohort (n=22)): 4; CR [3, 9]: 2; ORR [3, 9]: 39%; PR [3, 9]: 5; CR [3, 10]: 1; ORR [3, 10]: 100%; PR [3, 10]: 2; PFS ([3]; Cell of Origin ABC): 99 days; PFS ([3]; Cell of Origin GCB): 100 days; ORR ([3]; Cell of Origin Non-ABC): 8/27 (30%); PFS ([3]; Cell of Origin Non-ABC): 64 days; ORR ([3]; Cell of Origin Non-GCB): 6/18 (33%); PFS ([3]; Cell of Origin Non-GCB): 74 days; PFS ([3]; Cell of Origin Unclassified): 51 days; PFS ([3]; MYC/BCL2 dual expressor Negative): 70 days; PFS ([3]; MYC/BCL2 dual expressor Positive): 100 days; median increase from baseline in cytotoxic memory T cells [4]: 266%; median increase from baseline in helper memory T cells [4]: 75%
